Test results as given in US20240271096A1, “EFFICIENT DIFFERENTIATION OF SECOND HEART FIELD CARDIAC PROGENITOR CELLS AND RIGHT VENTRICLE CARDIOMYOCYTES FROM HUMAN PLURIPOTENT STEM CELLS” (Wisconsin Alumni Research Foundation, priority 2023, published 2024).

Columns and labels:
[1] = test system: SMAD1/5; assay: Western blotting of SMAD1/5 phosphorylation in GiWi protocol; assay type: cell-based, human; settings: insulin added on differentiation day 0; measured on day 3
Source text: Using the cell lysis solution contained in the Minute Total Protein Extraction Kit for Animal Cultured Cells/Tissues (Invent Biotechnologies, Plymouth, MN, United States) with Protease Inhibitor Cocktail Set III (×100) (Fujifilm Wako Pure Chemical Corporation, Osaka, Japan) and Phosphatase Inhibitor Cocktail Solution II (×100) (Fujifilm Wako Pure Chemical Corporation), cells at day 3 of differentiation were lysed and proteins were extracted according to the manufacturer's instructions. Protein concentration was measured with a Pierce BCA Protein Assay Kit (Thermo Fisher Scientific), iMark microplate reader and Microplate Manager 6 software (Bio-Rad, Hercules, CA, USA). Fifty micrograms of protein combined with Laemmli sample buffer (Bio-Rad) were boiled at 95° C. for 5 minutes and then loaded onto 10% Mini-PROTEAN TGX Precast Gels (Bio-Rad). Proteins were transferred to nitrocellulose membranes and blocking was performed using Tris buffered saline with Tween20 with 5% nonfat dry milk for 1 hour at room temperature. […] Immunoblotted proteins were detected by ECL Prime Western blotting detection reagents and ImageQuant LAS4000 mini (GE Healthcare, Chicago, IL, USA).

[2] = test system: reporterless hiPSC line; assay: Immunostaining of marker proteins in hiPSC-derived cardiac progenitor cells and cardiomyocytes; assay type: cell-based, human
Procedure: For LV-cardiomyocyte differentiation, cardiac differentiation was performed according to the protocol published by (Lian et al., 2012, Proc Natl Acad Sci USA 109:[…]-57). Cells were dissociated with StemPro Accutase Cell Dissociation Reagent at 37° C. for 5 minutes. HESCs were seeded on Matrigel-coated 24-well plates (Corning) in StemFlex Medium supplemented with 10 μmol/[…] were seeded on iMatrix-511-coated 12-well plates (Corning) in StemFit A[…] supplemented with 10 μmol/[…] at seeding densities of 1×10^5 cells/cm^2 for hESCs and 1.25-2.5×10^4 cells/cm^2 for hiPSCs. Cells were cultured for 4 days until the start of differentiation (day 0). On day 0, the medium was changed to RPMI 1640 Medium (Thermo Fisher Scientific) supplemented with B-27 Supplement minus insulin (Thermo Fisher Scientific) (RPMI/B27-insulin) or B-27 Supplement with insulin (Thermo Fisher Scientific), and 12 μmol/L CHIR 99021 (SelleckChem, Houston, TX, United States), and the cells incubated in this medium for 24 h (day 1). On day 1, the medium was changed to RPMI/B27-insulin. […] On day 3, the medium was changed to RPMI/B27-insulin supplemented with 5 μmol/L IWP2 (SelleckChem) and on day 5, the medium was changed to 1 ml RPMI/B27-insulin. From day 7, the cells were cultured with RPMI/B27-insulin, and the cells were fed every other day. On day 12, the cells were washed with PBS (Thermo Fisher Scientific) and cultured with DMEM or RPMI, no glucose supplemented with 8 mmol/L L-(+)-Lactic acid (Merck) (Tohyama et al., 2013 Cell Stem Cell, 12:127-37). The medium was changed every other day until day 17. After day 17, the cells were cultured with RPMI/B27 and fed every 2 to 3 days. For long-term culture, the cells were dissociated with TrypLETM Select Enzyme (10×) (Thermo Fisher Scientific) at 37° C. for 15-20 minutes and seeded on Matrigel- or iMatrix-511-coated plates. […] For FIG. 15A and FIG. 15B, dorsomorphin (DM) or 3 μg/L insulin were added on day 0 (for 24 hours), 1, 3, or 5 (for 48 hours). Cells were plated on iMatrix-511-coated plates and fixed in 4% paraformaldehyde (Nacalai, Kyoto, Japan) for 15 minutes. Cells were permeabilized with 0.1% Triton X-100 (Sigma-Aldrich, St. Louis, MO, United States)/PBS and blocked with 10% goat serum (Sigma-Aldrich). Primary and secondary antibodies were diluted in 0.1% Triton X-100/PBS with 5% goat serum and stained with Hoechst 33342 (Thermo Fisher Scientific) at 1 μg/mL, mouse anti-cardiac troponin T monoclonal IgG1 (GTX28295, GeneTex, Irvine, CA, United States) diluted at 1:16000, mouse anti-α-actinin monoclonal IgG1 (A7811, Sigma-Aldrich) diluted at 1:1000, rabbit anti-MLC2v monoclonal IgG (ab92721, Abcam, Cambridge, United Kingdom) diluted at 1:500, rabbit anti-CXCR4 monoclonal IgG (ab181020, Abcam) diluted at 1:2000, rabbit anti-NKX2-5 monoclonal IgG (Cat #. […], Cell Signaling Technology, Danvers, MA, United States) diluted at 1:2500, mouse anti-Nav1.5 (Car #. ASC-013, Alomone Labs) diluted at 1:1000, rabbit anti-connexin 43 (Cat #. 83649, Cell Signaling Technology) diluted at 1:1000, and mouse anti-TBX5 monoclonal IgG2a (Cat #. sc-515536, Santa Cruz Biotechnology, Dallas, TX, United States) diluted at 1:500. These cells were then incubated with a secondary antibody, goat anti-mouse or rabbit polyclonal IgG conjugated with iFluor 488 or 555 (AAT Bioquest, Sunnyvale, CA, United States) diluted at 1:1000, for 1 hour at room temperature. The cells were then observed with IX71 (Olympus, Tokyo, Japan) or EVOS FL Auto (Thermo Fisher Scientific) and images processed with ImageJ ([…] al., 2012, Nat Methods, 9:671-5).

insulin
phosphorylation of SMAD1/5 [1]: suppressed | RV cardiomyocytes differentiation ([2]; added on day 1 for 48 hours): induced optimal RV cardiomyocytes differentiation | CXCR4 immunostaining ([2]; insulin day 0 to day 1, day 6): upregulation | TBX5 expression (immunostaining) ([2]; insulin day 0 to day 1, day 10): greatly reduced | expression of pan-cardiomyocyte markers NKX2-5 and cardiac Troponin T (cTnT) ([2]; insulin day 0 to day 1, day 10): expressed | immunostaining of TBX5 ([2]; insulin on day 1 for 48 hours (D1-3)): low
